Experiment [1] concerns Lysinibacillus sphaericus. Put plainly: Antibacterial activity against Bacillus sphaericus by test disc paper method. Format: functional, organism-based.
A further experiment has as its system Bacillus subtilis. The experiment in a line: Antibacterial activity against Bacillus subtilis at 100 ug by test disc paper method. Format: functional. As to conditions: read-out: IZ.
Another experiment has as its system Heliothis virescens. Put plainly: Growth inhibition of tobacco budworm larvae assessed as percent of diet. It is filed as functional.
The subject of a further experiment is Solanum lycopersicum. The experiment in a line: Growth regulatory activity on tomato root. It is filed as functional, organism-based.
Another experiment relates to Bacillus thuringiensis. The experiment in a line: Antibacterial activity against Bacillus thuringiensis at 100 ug by test disc paper method. The conditions noted are these: read-out: IZ. Format: functional.
Experiment [2] concerns Stenotrophomonas maltophilia. Put plainly: Antibacterial activity against Pseudomonas maltophilia at 100 ug by test disc paper method. The conditions noted are these: read-out: IZ. It is filed as functional.

Calls of active or inactive are those of the source. The rule behind the calls is not given here.

For the compound `O=C(O)c1cc(O)c(O)c(O)c1` [GALLIC ACID], the outcome in experiment [1] was Active. Besides, the zone of inhibition at 100 µg/disc in the experiment with Bacillus subtilis worked out at 10 mm. Moreover, the ED50 in the experiment on Heliothis virescens was found to be 18.5%.

With `C[C@H]1O[C@@H](Oc2c(-c3cc(O)c(O)c(O)c3)oc3cc(O)cc(O)c3c2=O)[C@@H](O)[C@@H](O)[C@@H]1OC(=O)c1cc(O)c(O)c(O)c1`, in the experiment with Heliothis virescens, the ED50 was found to be 0.04%. Moreover, the result in the experiment on Solanum lycopersicum was inactive.

Take `C[C@H]1O[C@@H](Oc2c(-c3cc(O)c(O)c(O)c3)oc3cc(O)cc(O)c3c2=O)[C@@H](OC(=O)c2cc(O)c(O)c(O)c2)[C@@H](O)[C@@H]1O`: the result in experiment [1] was Active. Further, the zone of inhibition at 100 µg/disc (in the experiment with Bacillus thuringiensis; in the experiment on Bacillus subtilis; in experiment [2]) was 10 mm each time. Also, the ED50 in the experiment with Heliothis virescens came to 0.09%.

Consider `C[C@H]1O[C@@H](Oc2c(-c3cc(O)c(O)c(O)c3)oc3cc(O)cc(O)c3c2=O)[C@@H](O)[C@@H](O)[C@@H]1O` [MYRICITRIN], for which, in the experiment on Heliothis virescens, the ED50 stood at 0.11%.

For the compound `O=c1c(O)c(-c2ccc(O)c(O)c2)oc2cc(O)cc(O)c12` [QUERCETIN], in the experiment on Heliothis virescens, the ED50 was 0.05%. Moreover, in experiment [2], the zone of inhibition at 100 µg/disc is 10 mm.
